Reference: PubChem BioAssay (NCI)
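Grown in 96-well plates, cells were treated for 48 hours with each compound at five concentrations. Insufficient inhibition: endpoint recorded as highest concentration tested. Definition used: TGI = concentration required for complete inhibition of growth.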

How the values were obtained:
Assay in all cases: DTP human tumour cell line panel, 48 h
786-0 renal = tested on: 786-0 renal
A498 renal = tested on: A498 renal
A549 NSCLC = tested on: A549 NSCLC
ACHN renal = tested on: ACHN renal
CAKI-1 renal = tested on: CAKI-1 renal
CCRF-CEM leukemia = tested on: CCRF-CEM leukemia
COLO 205 colon = tested on: COLO 205 colon
DMS 114 small cell lung = tested on: DMS 114 small cell lung
DMS 273 small cell lung = tested on: DMS 273 small cell lung
EKVX NSCLC = tested on: EKVX NSCLC
HCC-2998 colon = tested on: HCC-2998 colon
HCT-116 colon = tested on: HCT-116 colon
HCT-15 colon = tested on: HCT-15 colon
HL-60(TB) leukemia = tested on: HL-60(TB) leukemia
HOP-18 NSCLC = tested on: HOP-18 NSCLC
HOP-62 NSCLC = tested on: HOP-62 NSCLC
HOP-92 NSCLC = tested on: HOP-92 NSCLC
HT29 colon = tested on: HT29 colon
IGROV1 ovarian = tested on: IGROV1 ovarian
K-562 leukemia = tested on: K-562 leukemia
KM12 colon = tested on: KM12 colon
KM20L2 colon = tested on: KM20L2 colon
LXFL 529 NSCLC = tested on: LXFL 529 NSCLC
M14 melanoma = tested on: M14 melanoma
M19-MEL melanoma = tested on: M19-MEL melanoma
MALME-3M melanoma = tested on: MALME-3M melanoma
MOLT-4 leukemia = tested on: MOLT-4 leukemia
NCI-H23 lung = tested on: NCI-H23 lung
NCI-H460 lung = tested on: NCI-H460 lung
NCI-H522 lung = tested on: NCI-H522 lung
OVCAR-3 ovarian = tested on: OVCAR-3 ovarian
OVCAR-4 ovarian = tested on: OVCAR-4 ovarian
OVCAR-5 ovarian = tested on: OVCAR-5 ovarian
OVCAR-8 ovarian = tested on: OVCAR-8 ovarian
RPMI-8226 leukemia = tested on: RPMI-8226 leukemia
RXF 393 renal = tested on: RXF 393 renal
SF-268 CNS = tested on: SF-268 CNS
SF-295 CNS = tested on: SF-295 CNS
SF-539 CNS = tested on: SF-539 CNS
SK-MEL-2 melanoma = tested on: SK-MEL-2 melanoma
SK-MEL-28 melanoma = tested on: SK-MEL-28 melanoma
SK-MEL-5 melanoma = tested on: SK-MEL-5 melanoma
SK-OV-3 ovarian = tested on: SK-OV-3 ovarian
SN12C renal = tested on: SN12C renal
SNB-19 CNS = tested on: SNB-19 CNS
SNB-75 CNS = tested on: SNB-75 CNS
SNB-78 CNS = tested on: SNB-78 CNS
SW-620 colon = tested on: SW-620 colon
TK-10 renal = tested on: TK-10 renal
U251 CNS = tested on: U251 CNS
UACC-257 melanoma = tested on: UACC-257 melanoma
UACC-62 melanoma = tested on: UACC-62 melanoma
UO-31 renal = tested on: UO-31 renal
XF 498 CNS = tested on: XF 498 CNS

In the case of `NC1=NC2=C(CCCC2)C(c2cccs2)S1` (centres undefined), the TGI (786-0 renal) is reported as > 100 µM, the TGI (A498 renal) is reported as > 100 µM and the TGI (A549 NSCLC) is reported as > 100 µM. The TGI (ACHN renal) was > 100 µM, the TGI (CAKI-1 renal) was > 100 µM and the TGI (CCRF-CEM leukemia) was > 100 µM. For the same compound, the TGI (COLO 205 colon) was > 100 µM, the TGI (DMS 114 small cell lung) was > 100 µM and the TGI (DMS 273 small cell lung) was > 100 µM. For the same compound, the TGI (EKVX NSCLC) was > 100 µM, the TGI (HCC-2998 colon) was > 100 µM and the TGI (HCT-116 colon) was > 100 µM. For the same compound, the TGI (HCT-15 colon) was > 100 µM, the TGI (HL-60(TB) leukemia) was > 100 µM and the TGI (HOP-18 NSCLC) was > 100 µM. For the same compound, the TGI (HOP-62 NSCLC) was > 100 µM, the TGI (HOP-92 NSCLC) was > 100 µM and the TGI (HT29 colon) was > 100 µM. The TGI (IGROV1 ovarian) was > 100 µM, the TGI (K-562 leukemia) was > 100 µM and the TGI (KM12 colon) was > 100 µM. For the same compound, the TGI (KM20L2 colon) was > 100 µM, the TGI (LXFL 529 NSCLC) was > 100 µM and the TGI (M14 melanoma) was > 100 µM. The TGI (M19-MEL melanoma) was > 100 µM, the TGI (MALME-3M melanoma) was > 100 µM and the TGI (MOLT-4 leukemia) was > 100 µM. The TGI (NCI-H23 lung) was > 100 µM, the TGI (NCI-H460 lung) was > 100 µM and the TGI (NCI-H522 lung) was > 100 µM. For the same compound, the TGI (OVCAR-3 ovarian) was > 100 µM, the TGI (OVCAR-4 ovarian) was > 100 µM and the TGI (OVCAR-5 ovarian) was > 100 µM. The TGI (OVCAR-8 ovarian) was > 100 µM, the TGI (RPMI-8226 leukemia) was > 100 µM and the TGI (RXF 393 renal) was > 100 µM. For the same compound, the TGI (SF-268 CNS) was > 100 µM, the TGI (SF-295 CNS) was > 100 µM and the TGI (SF-539 CNS) was > 100 µM. The TGI (SK-MEL-2 melanoma) was > 100 µM, the TGI (SK-MEL-28 melanoma) was > 100 µM and the TGI (SK-MEL-5 melanoma) was > 100 µM. The TGI (SK-OV-3 ovarian) was > 100 µM, the TGI (SN12C renal) was > 100 µM and the TGI (SNB-19 CNS) was > 100 µM. For the same compound, the TGI (SNB-75 CNS) was > 100 µM, the TGI (SNB-78 CNS) was > 100 µM and the TGI (SW-620 colon) was > 100 µM. The TGI (TK-10 renal) was > 100 µM, the TGI (U251 CNS) was > 100 µM and the TGI (UACC-257 melanoma) was > 100 µM. The TGI (UACC-62 melanoma) was > 100 µM, the TGI (UO-31 renal) was 74.3 µM and the TGI (XF 498 CNS) was > 100 µM.
